# Values joined by “and” are separate entries in the source; they are usually repeats but may differ in a detail not shown here. Equal values may be shown once. “Also recorded” adds a separate entry of the source.
# What was measured:
# CGRP receptor = biological target: T1, CGRP receptor (Homo sapiens, UniProt O60894+Q16602); settings: literature (Sheykhzade 2018; Nilsson 2016); cited from earlier work
# T1 construct: host or cells: naturally occurring cells, recombinant CGRP receptor expressing cell lines, isolated artery segments (none specified)
# [1] = test system: coronary (left anterior descending artery, LAD) artery segments; experiment: Vasodilation of isolated precontracted artery segments (wire myograph), coronary artery; format: cell-based, rat
# Experimental: (§1) Basilar, mesenteric and coronary arteries were isolated immediately and ring artery segments were stored in ice cold PSS buffer before being mounted on 40 μm stainless steel wires in a Multi Wire Myograph System organ bath (model 610M, Danish Myo Technology A/S, Denmark). Each segment was immersed in 37° C. PSS solution, continuously aerated with 5% CO2/95% O2 to maintain pH 7.4. […] One wire was connected to a micrometer screw enabling adjustments of the distance between the wires. The other wire was connected to a force displacement transducer attached to an analogue-digital converter unit (ADInstruments, Chalgrove, UK).
# (§2) Measurements of vascular tone were recorded using the data acquisition hardware Power Lab unit (ADInstruments). To ensure optimal conditions for maximal force development, each artery segment was carefully stretched to 90% of the internal circumference that the vessel would have under the passive transmural pressure of 100 mm Hg. Following an equilibration period of approximately 20 min, each segment was exposed twice to KPSS to confirm smooth muscle cell viability and the reproducibility of depolarization-induced contractions.
# After 15 min equilibration, a stable precontraction tone (50-80% of the KPSS-induced steady state contraction) was induced in arterial segments by PGF2α (3-10 μM). […]
# Vasodilation is expressed as percentage of the remaining precontraction tone induced by PGF2α. […] Active tension was determined by subtracting the passive tension (resting tension in PSS) from the total tension (during KPSS or PGF2α challenge).
# (§3) All pharmacological data were analysed using Prism 7.02 (GraphPad Software Inc., San Diego, CA) and given as mean±S.E.M. For all analyses, the data were unweighted and each y value (mean of replicates for each individual experiment) was considered an individual point.
# (§4) Differences in pEC50 and Emax values were analysed with paired (animal) t-tests and considered significant as P<0.05.
# [2] = test system: peripheral (mesenteric) artery segments; experiment: Vasodilation of isolated precontracted artery segments (wire myograph), mesenteric artery; format: cell-based, rat
# Experimental: as §1, §2
# (§5) After 15 min equilibration, a stable precontraction tone (50-80% of the KPSS-induced steady state contraction) was induced in arterial segments by PGF2α (3-10 μM).
# (§6) Concentration-dependent vasodilatory responses of artery segments were normalized as percentage of precontraction remaining.
# (§7) Vasodilation is expressed as percentage of the remaining precontraction tone induced by PGF2α. Vessel wall tension=Force/(vessel wall length), where vessel wall length=2×segment length. Active tension was determined by subtracting the passive tension (resting tension in PSS) from the total tension (during KPSS or PGF2α challenge).
# as §3, §4
# [3] = test system: hypertension in experimental animals; settings: cited from earlier work
# [4] = test system: cerebral (basilar) artery segments; experiment: Vasodilation of isolated precontracted artery segments (wire myograph), basilar artery; format: cell-based, rat
# Experimental: as §1, §2, §5, §6, §7, §3, §4
# [5] = test system: coronary LAD artery segments; experiment: CGRP-agonist sensibilization: repeated dose-response and artery culture, coronary LAD; format: cell-based, rat
# Text: (§8) Artery segments were divided for comparison of the effect of Compound I and CGRP in fresh and cultured artery segments, respectively.
# [6] = test system: rats with acute myocardial infarction (permanent LAD occlusion); experiment: Rat model of acute myocardial infarction (permanent LAD occlusion), myocardial perfusion imaging by SPECT/CT
# Experimental: Experimental myocardial infarction is induced by LAD ligation in rats. Size of the acute myocardial perfusion defect is determined by myocardial perfusion imaging using SPECT/CT. […] All surviving rats underwent follow-up myocardial perfusion imaging using SPECT/CT 21 days after the infarct to determine the final infarct size.
# AMI surgery was conducted using the procedure for permanent LAD occlusion.
# The rats were anaesthetized with 4% sevoflurane. Rats were intubated and ventilated (UNO micor-ventilator-O3, Netherlands) and maintained anaesthetized with sevuflorane 2.5% to 4%. Rats were placed on a heated surface during surgery. In the rat's tail vein a 24G intravenous catheter was placed (Vasofix® Safety, Braun, Denmark). Before incision the rats were pain treated subcutaneously with Buprenorphine 0.05 mg/kg. After surgery the rats were paintreated four times the first 24 hours and three times the next 24-72 hours.
# After insuring sterile surgical conditions, an incision was made in the skin and a thoracotomy was performed. This was placed at either the third or fourth intercostal space depending on size. The pericardium was identified and opened. After inspection of the heart, the LAD was identified and ligated caudal of its origin with a 5-0 polypropylene suture. The myocardium was visually observed for ischemia. If there was no discoloration of the myocardium, another suture was made until ischemia was confirmed by discoloration of the myocardium. One minute after ligation, the rats were injected intravenously with 99-technetium sestamibi to determine the acute perfusion defect. After injection of sestamibi, suture type vicryl 4-0 was used to close the thoracotomy, muscle layer and skin.
# Rats underwent single photon emission computer tomography (SPECT) on the day of the surgery and 21 days post-surgery to determine acute and final perfusion defect size. Imaging was performed on a preclinical SPECT/CT scanner (Mediso Nanoscan, Hungary). The rats were anesthetized with sevuflorane 4% for SPECT-scan to be obtained. On the day of the surgery, the rats were perioperatively injected with 99-technetium Sestamibi (median 106 mBq [99; 116]) as described above. On the 21-days follow-up the rats were anesthetized with sevoflurane 4%. In the rat's tail vein an 24G intravenous catheter was placed (Vasofix® Safety, Braun, Denmark). After the catheter was placed, the rats were injected with 99-tecnetium (median 122 [106; 129]).
# [7] = test system: mesenteric artery segments; experiment: CGRP-agonist sensibilization: repeated dose-response and artery culture, mesenteric artery; format: cell-based, rat; settings: isolated mesenteric artery
# Text: as §8
# [8] = all completers, 21 days after infarct, mean ± SEM
# [9] = subgroup with acute perfusion defect < 15%, 21 days, mean ± SEM
# T1 sequence (Q16602 23-461): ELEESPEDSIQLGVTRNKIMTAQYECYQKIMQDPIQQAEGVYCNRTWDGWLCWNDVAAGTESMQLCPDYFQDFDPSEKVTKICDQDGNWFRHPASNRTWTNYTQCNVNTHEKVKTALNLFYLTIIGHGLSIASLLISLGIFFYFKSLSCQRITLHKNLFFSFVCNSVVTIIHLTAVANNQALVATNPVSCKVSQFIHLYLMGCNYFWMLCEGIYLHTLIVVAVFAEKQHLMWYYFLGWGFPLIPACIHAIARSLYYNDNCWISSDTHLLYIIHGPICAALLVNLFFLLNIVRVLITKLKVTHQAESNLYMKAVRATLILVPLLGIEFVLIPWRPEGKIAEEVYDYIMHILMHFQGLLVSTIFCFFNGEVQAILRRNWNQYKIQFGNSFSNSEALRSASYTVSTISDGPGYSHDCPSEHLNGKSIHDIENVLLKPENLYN
# T1 sequence (O60894 27-148): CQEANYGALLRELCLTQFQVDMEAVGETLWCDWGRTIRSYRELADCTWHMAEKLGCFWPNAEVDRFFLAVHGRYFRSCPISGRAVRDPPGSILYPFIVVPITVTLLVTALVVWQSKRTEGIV
substance,measurement,setting,value
N-alpha-[2-(2-{2-[(S)-4-Carboxy-4-(17-carboxyheptadecanoylamino)butyryl-amino]ethoxy}ethoxy)acetyl](Ser1]beta-human CGRP peptide [Compound II],In vitro potency lower than that of CGRP,CGRP receptor,approximately 10 times
N-alpha-[2-(2-{2-[(S)-4-Carboxy-4-(17-carboxyheptadecanoylamino)-butyrylamino]-ethoxy}ethoxy)acetyl](Ser1]alpha-human CGRP peptide [Compound I],Vasodilation efficacy compared with CGRP (in words),[1]; coronary artery,comparable efficacy; also recorded: not different
same,Potency ratio (EC50 CGRP: EC50 Compound 1),[1]; coronary artery segments,~1
same,Vasodilatory potency compared with CGRP (in words),[1]; coronary artery segments,equipotent; also recorded: similar; also recorded: not different
same,Potency difference between CGRP and Compound I,[2]; mesenteric artery,5-10 fold
same,Potency ratio (EC50 CGRP: EC50 Compound 1),[2]; mesenteric artery,0.1-0.2
same,Vasodilation efficacy compared with CGRP (in words),[2]; mesenteric artery,comparable efficacy
same,Vasodilatory potency compared with CGRP (in words),[2]; mesenteric artery,lower
same,Potency in peripheral compared with coronary artery (in words),[2]; peripheral (mesenteric) versus coronary artery,not lower
same,Effect on hypertension (in words),[3],reversing hypertension and complications of hypertension
same,Vasodilation efficacy compared with CGRP (in words),[4]; basilar artery,comparable efficacy
same,Vasodilatory potency compared with CGRP (in words),[4]; basilar artery,lower
same,Potency difference between CGRP and Compound I,[4]; cerebral artery,5-10 fold
same,Potency ratio (EC50 CGRP: EC50 Compound 1),[4]; cerebral artery,0.1-0.2
same,Effect of repeated cumulative stimulation on potency ratio Compound I/CGRP (in words),[5],does not change the potency ratio
same,Effect of artery culture on CGRP-agonist-induced vasodilation (in words),[5]; culture 24 h at 37° C. in absence and presence of 10 nM Compound I,induce sensibilization
same,Effect of repeated cumulative stimulation on potency (in words),[5]; second dose-response curve 90-120 minutes after the first,shift in potency towards significant sensitization
same,In vitro potency lower than that of CGRP,CGRP receptor,approximately 10 times
same,"Perfusion recovery, %",[6]; [8],55.1±6.6% and 55.1 ± 6.4%
same,"Perfusion recovery, SRS",[6]; [8],6.5 ± 1 SRS
same,Animals surviving the surgery and the 3 weeks recovery period (survival rate),"[6]; rat, in vivo",75%
same,Effect on survival rate (in words),"[6]; rat, in vivo",tendency (not statistically significant) towards an increased survival rate
same,Further rats that died during the 21-days follow-up period,"[6]; rat, in vivo",14%
same,"Perfusion recovery in subgroup, %",[6]; [9],66.2 ± 9.0%
same,"Perfusion recovery in subgroup, SRS",[6]; [9],3.8 ± 0.6 SRS
same,Effect on myocardial perfusion recovery (in words),"[6]; treatment for 3 successive days after experimental AMI, 3 weeks",large improvement of myocardial perfusion recovery; also recorded: significant improved recovery of perfusion defect
same,Potency ratio between Compound I and CGRP after repeated dose-response (in words),[7],maintained
same,CGRP-agonist-induced CGRP sensibilization (in words),[7]; repeated dose-response and culture,no CGRP-agonist-induced CGRP sensibilization
